The target of assay [1] is T1, Cannabinoid receptor 2 (Homo sapiens, UniProt P34972). The assay can be described thus: Displacement of [3H]-CP55940 from recombinant human CB2 receptor expressed in HEK293 cell membranes after 90 mins by scintillation counting method.
For assay [2], the target named is T2, Cannabinoid receptor 1 (Homo sapiens, UniProt P21554). In words: Displacement of [3H]-CP55940 from recombinant human CB1 receptor expressed in HEK293-EBNA cell membranes after 90 mins by scintillation counting method.
T2 sequence (P21554 whole entry): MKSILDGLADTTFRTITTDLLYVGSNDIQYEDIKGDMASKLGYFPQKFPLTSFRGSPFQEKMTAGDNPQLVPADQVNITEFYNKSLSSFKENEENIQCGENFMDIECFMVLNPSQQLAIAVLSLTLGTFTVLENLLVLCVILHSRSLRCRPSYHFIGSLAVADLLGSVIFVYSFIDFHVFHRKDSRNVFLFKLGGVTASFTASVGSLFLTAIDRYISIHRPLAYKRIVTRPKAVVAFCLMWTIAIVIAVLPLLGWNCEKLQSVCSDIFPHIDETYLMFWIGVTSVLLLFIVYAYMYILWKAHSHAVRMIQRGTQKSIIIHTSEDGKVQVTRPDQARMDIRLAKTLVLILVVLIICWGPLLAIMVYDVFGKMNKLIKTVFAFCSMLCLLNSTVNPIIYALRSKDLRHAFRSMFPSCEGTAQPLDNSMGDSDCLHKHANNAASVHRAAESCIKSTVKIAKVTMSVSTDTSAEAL
Assay [3] concerns the target Cannabinoid receptor 2 (Mus musculus, UniProt P47936). In words: Displacement of [3H]-CP55940 from CB2 receptor in mouse spleen membranes after 60 mins by scintillation counting method. It is filed as cell membranes.
The target of assay [4] is Cannabinoid receptor 1 (Rattus norvegicus, UniProt P20272). In words: Displacement of [3H]-CP55940 from CB1 receptor in rat […] membranes after 60 mins by scintillation counting method. It is filed as cell membranes.
Sequence of Cannabinoid receptor 1 (Rattus norvegicus, UniProt P20272) (P20272 whole entry): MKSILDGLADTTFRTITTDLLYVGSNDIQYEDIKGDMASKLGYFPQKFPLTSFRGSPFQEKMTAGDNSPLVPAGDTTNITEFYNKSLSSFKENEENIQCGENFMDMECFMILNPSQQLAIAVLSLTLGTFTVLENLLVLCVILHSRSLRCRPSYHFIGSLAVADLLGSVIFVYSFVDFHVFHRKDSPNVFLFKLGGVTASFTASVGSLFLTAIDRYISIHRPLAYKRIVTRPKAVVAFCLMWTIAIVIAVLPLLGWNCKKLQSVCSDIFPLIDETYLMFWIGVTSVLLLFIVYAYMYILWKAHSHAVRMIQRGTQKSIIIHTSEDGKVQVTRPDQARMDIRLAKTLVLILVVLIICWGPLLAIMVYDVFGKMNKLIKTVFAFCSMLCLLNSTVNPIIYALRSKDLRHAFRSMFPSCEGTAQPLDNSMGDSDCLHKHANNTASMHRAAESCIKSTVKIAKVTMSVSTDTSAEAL
Assay [5] addresses T1, Cannabinoid receptor 2. In words: Displacement of [3H]-CP55940 from recombinant CB2 receptor (unknown origin) expressed in cell membranes after 90 mins by scintillation counting method.
The target in assay [6] is T1, Cannabinoid receptor 2. The assay can be described thus: Displacement of [3H]-CP55940 from recombinant human CB2 receptor expressed in HEK293 cell membranes measured after 90 mins.
For another assay, the species on record is Chlorocebus aethiops. In words: Inhibition of MAGL in African green monkey COS cell homogenates at 100 uM using [3H]-arachidonoylglycerol as substrate measured after 20 mins by scintillation counting method relative to control. It is filed as tissue-based.
Assay [7] has as its target T3, N-acylethanolamine-hydrolyzing acid amidase (Homo sapiens, UniProt Q02083).
T3 sequence (Q02083 whole entry): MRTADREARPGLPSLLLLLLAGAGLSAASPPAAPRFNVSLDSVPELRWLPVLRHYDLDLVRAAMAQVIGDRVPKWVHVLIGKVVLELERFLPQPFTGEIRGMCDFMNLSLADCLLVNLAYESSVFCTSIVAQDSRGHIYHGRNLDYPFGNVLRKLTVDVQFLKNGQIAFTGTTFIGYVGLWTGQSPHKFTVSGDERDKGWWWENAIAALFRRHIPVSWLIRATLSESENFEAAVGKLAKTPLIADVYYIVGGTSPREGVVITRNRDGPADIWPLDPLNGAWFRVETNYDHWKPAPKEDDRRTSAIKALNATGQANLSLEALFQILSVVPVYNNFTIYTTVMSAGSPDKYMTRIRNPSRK
The assay can be described thus: Inhibition of recombinant human NAAA expressed in HEK293 cells using [14C]-N-palmitoylethanolamine as substrate measured after 30 mins by beta-counting method. It counts as cell-based.

The nature of assay [8]: Inhibition of MAGL in African green monkey COS cell homogenates using [3H]-arachidonoylglycerol as substrate measured after 20 mins by scintillation counting method. It is filed as tissue-based, Chlorocebus aethiops.
The target of assay [9] is T4, Fatty-acid amide hydrolase 1 (Rattus norvegicus, UniProt P97612).
T4 sequence (P97612 whole entry): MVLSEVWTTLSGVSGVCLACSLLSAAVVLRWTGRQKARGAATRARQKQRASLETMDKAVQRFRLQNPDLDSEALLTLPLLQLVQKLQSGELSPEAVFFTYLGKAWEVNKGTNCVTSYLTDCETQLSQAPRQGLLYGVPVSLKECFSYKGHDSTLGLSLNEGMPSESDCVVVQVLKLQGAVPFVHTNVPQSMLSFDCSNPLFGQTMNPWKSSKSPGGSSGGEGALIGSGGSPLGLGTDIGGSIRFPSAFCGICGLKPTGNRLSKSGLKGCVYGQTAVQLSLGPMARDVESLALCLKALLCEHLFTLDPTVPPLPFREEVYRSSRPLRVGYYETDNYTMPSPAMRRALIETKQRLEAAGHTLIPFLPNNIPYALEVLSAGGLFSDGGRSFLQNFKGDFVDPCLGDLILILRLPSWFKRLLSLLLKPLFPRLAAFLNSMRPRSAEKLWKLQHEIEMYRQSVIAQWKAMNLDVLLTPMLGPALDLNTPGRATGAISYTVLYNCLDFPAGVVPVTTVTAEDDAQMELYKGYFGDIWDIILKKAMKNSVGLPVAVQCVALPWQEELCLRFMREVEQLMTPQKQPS
In words: Inhibition of FAAH in rat brain membranes using [14C]-AEA as substrate measured after 30 mins by scintillation counting method. It counts as cell membranes.

In assay [10] the test system is RBL-2H3. In words: Inhibition of [14C]-AEA uptake in rat RBL2H3 cells by scintillation counting method. It counts as functional, cell-based.
In assay [11] the target is T5, N-acylethanolamine-hydrolyzing acid amidase (Homo sapiens) (UniProt Q02083).
T5 sequence (whole entry): T3 sequence (Q02083 whole entry)
In words: Inhibition of recombinant human NAAA expressed in HEK293 cells at 50 uM using [14C]-N-palmitoylethanolamine as substrate measured after 30 mins by beta-counting method relative to control. It counts as cell-based.

For assay [12], the system named is RBL-2H3. In words: Inhibition of [14C]-AEA uptake in rat RBL2H3 cells at 25 uM by scintillation counting method relative to control. It is filed as functional.
Assay [13] has as its target T2, Cannabinoid receptor 1. In words: Displacement of [3H]-CP55940 from recombinant human CB1 receptor expressed in Sf9 cell membranes co-expressing Galphai3beta1gamma2 measured after 90 mins by scintillation counting method.
In assay [14] the target is T6, Diacylglycerol lipase-alpha (Homo sapiens) (UniProt Q9Y4D2).
T6 sequence (whole entry): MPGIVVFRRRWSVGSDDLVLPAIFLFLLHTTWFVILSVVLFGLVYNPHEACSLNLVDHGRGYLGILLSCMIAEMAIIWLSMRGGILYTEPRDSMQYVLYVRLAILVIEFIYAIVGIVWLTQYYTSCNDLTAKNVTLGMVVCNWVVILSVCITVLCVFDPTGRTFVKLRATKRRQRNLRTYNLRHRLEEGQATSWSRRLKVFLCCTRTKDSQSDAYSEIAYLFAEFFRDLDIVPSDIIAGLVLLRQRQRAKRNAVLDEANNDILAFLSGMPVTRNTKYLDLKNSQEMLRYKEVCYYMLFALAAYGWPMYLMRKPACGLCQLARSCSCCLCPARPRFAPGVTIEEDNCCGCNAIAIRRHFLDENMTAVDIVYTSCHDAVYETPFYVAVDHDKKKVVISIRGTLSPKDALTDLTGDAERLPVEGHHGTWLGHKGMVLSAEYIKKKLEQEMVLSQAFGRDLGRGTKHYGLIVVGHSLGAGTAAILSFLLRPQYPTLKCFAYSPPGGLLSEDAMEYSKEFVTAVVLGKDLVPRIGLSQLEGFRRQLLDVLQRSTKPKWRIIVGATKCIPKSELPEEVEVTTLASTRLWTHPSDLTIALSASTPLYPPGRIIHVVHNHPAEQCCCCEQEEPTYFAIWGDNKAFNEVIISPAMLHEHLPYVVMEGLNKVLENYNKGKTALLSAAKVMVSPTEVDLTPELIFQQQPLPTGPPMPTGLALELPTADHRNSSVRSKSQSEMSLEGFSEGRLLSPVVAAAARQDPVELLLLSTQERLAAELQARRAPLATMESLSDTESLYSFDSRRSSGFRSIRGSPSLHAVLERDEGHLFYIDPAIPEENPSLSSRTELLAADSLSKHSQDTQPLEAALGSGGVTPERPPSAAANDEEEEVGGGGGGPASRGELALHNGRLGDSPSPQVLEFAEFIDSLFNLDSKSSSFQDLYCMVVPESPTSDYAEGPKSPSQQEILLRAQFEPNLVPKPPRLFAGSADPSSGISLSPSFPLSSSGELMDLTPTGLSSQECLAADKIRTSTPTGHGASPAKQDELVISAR
The assay can be described thus: Inhibition of recombinant human DAGLalpha expressed in COS7 cells at 100 uM using [14C]-oleoyl-2-arachidonoyl-glycerol as substrate measured after 20 mins by beta-counting method relative to control. It is filed as cell-based.

The target of assay [15] is T1, Cannabinoid receptor 2. In words: Displacement of [3H]-CP55940 from recombinant human CB2 receptor expressed in Sf9 cell membranes co-expressing Galphai3beta1gamma2 measured after 90 mins by scintillation counting method.
In assay [16] the target is T7, Diacylglycerol lipase-alpha (Homo sapiens, UniProt Q9Y4D2).
T7 sequence (Q9Y4D2 whole entry): T6 sequence (whole entry)
The assay can be described thus: Inhibition of recombinant human DAGLalpha expressed in COS7 cells using [14C]-oleoyl-2-arachidonoyl-glycerol as substrate measured after 20 mins by beta-counting method. It is filed as cell-based.

Assay [17] deals with T8, Fatty-acid amide hydrolase 1 (Rattus norvegicus) (UniProt P97612).
T8 sequence (whole entry): T4 sequence (P97612 whole entry)
The assay can be described thus: Inhibition of FAAH in rat brain membranes at 100 uM using [14C]-AEA as substrate measured after 30 mins by scintillation counting method relative to control. It is filed as cell membranes.

The target in assay [18] is T5, N-acylethanolamine-hydrolyzing acid amidase (Homo sapiens). The assay can be described thus: Inhibition of recombinant human NAAA expressed in HEK293 cells at 100 uM using [14C]-N-palmitoylethanolamine as substrate measured after 30 mins by beta-counting method relative to control. It counts as cell-based.
The target of assay [19] is T8, Fatty-acid amide hydrolase 1 (Rattus norvegicus). The assay can be described thus: Inhibition of FAAH in rat brain membranes at 50 uM using [14C]-AEA as substrate measured after 30 mins by scintillation counting method relative to control. It is filed as cell membranes.
In assay [20] the target is T2, Cannabinoid receptor 1. In words: Displacement of [3H]-CP55940 from CB1 receptor (unknown origin).
The target in assay [21] is T1, Cannabinoid receptor 2. In words: Displacement of [3H]-CP55940 from CB2 receptor (unknown origin).

Sequence of Cannabinoid receptor 2 (Mus musculus, UniProt P47936) (P47936 whole entry): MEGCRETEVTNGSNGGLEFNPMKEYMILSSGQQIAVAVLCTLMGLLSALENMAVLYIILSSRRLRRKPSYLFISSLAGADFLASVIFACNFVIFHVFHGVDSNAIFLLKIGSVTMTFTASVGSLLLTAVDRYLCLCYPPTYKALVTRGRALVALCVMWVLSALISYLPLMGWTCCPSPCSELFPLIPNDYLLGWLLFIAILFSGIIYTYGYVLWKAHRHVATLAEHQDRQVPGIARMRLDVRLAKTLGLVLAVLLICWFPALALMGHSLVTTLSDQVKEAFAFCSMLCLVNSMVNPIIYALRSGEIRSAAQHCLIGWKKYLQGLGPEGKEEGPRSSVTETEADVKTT
T1 sequence (P34972 whole entry): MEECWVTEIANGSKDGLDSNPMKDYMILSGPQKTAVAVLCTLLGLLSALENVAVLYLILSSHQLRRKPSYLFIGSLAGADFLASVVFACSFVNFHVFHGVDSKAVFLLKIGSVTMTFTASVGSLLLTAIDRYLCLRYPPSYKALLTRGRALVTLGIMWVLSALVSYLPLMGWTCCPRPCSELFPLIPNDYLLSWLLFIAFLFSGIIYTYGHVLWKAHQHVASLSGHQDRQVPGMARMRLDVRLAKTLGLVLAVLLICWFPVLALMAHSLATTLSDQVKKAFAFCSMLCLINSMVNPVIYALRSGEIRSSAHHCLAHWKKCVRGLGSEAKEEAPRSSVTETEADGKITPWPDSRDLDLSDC

With `C#CC#CCCCC/C=C/C(=O)NCC(C)C`, the Ki on Cannabinoid receptor 2 [1] and at Cannabinoid receptor 1 [2] was over 40 µM each time.
With `CC#CC#CCCCC/C=C/C(=O)NCC(C)CC` (stereo unspecified), the inhibition constant Ki at Cannabinoid receptor 2 [3] worked out at 7.2 µM; on Cannabinoid receptor 1 [4], 6.73 µM.
In the case of `C/C=C\C=C\CC/C=C/C=C/C(=O)NCC(C)C`, on Cannabinoid receptor 2 [5], the Ki was 4.53 µM.
For `CC#CC#CCCCC/C=C/C=C/C(=O)NCC(C)C`, the Ki came to 1.87 µM on Cannabinoid receptor 2 [3] and 24.6 µM on Cannabinoid receptor 1 [4].
On to `CCC/C=C\CC/C=C/C=C/C(=O)NCC(C)C`, for which the inhibitory constant (Ki) at Cannabinoid receptor 2 [3] amounted to 8.38 µM; on Cannabinoid receptor 1 [4], 11 µM.
Take `C/C=C/C=C\CC/C=C/C=C/C(=O)NCC(C)C`: the Ki on Cannabinoid receptor 2 [5] came to 9.04 µM.
Take `C/C=C\C=C/CC/C=C/C=C/C(=O)NCC(C)C`: the Ki is 0.057 µM on Cannabinoid receptor 2 [1] and 6.21 µM on Cannabinoid receptor 1 [2].
For the compound `CC(C)=CCC/C(C)=C/Cc1c(O)cc(CCc2ccccc2)c(C(=O)O)c1O`, the Ki at Cannabinoid receptor 2 [6] was determined as 0.828 µM.
For `CCCCCc1cc(O)c2c(c1)OC(C)(CCC=C(C)C)C=C2` (stereo unspecified) [CANNABICHROMENE], the Emax in the assay listed under Chlorocebus aethiops stood at 64.5%; in assay [11], 40.6%; in assay [14], 39.5%; in [17], 46.5%. Also, the IC50 was over 100 µM in assay [7]; 50.1 µM in assay [8]; over 100 µM in [9]; 12.3 µM in the assay with RBL-2H3 [10]; over 100 µM in assay [16]. For the same compound, the Emax at 25 µM with RBL-2H3 [12] turned out to be 83.2%. The Ki at Cannabinoid receptor 1 [13] is 0.714 µM; on Cannabinoid receptor 2 [15] it was 0.257 µM.
Regarding `CCCCCc1cc(O)c(C/C=C(\C)CCC=C(C)C)c(O)c1C(=O)O` [CANNABIGEROLIC ACID], the Emax in the assay listed under Chlorocebus aethiops turned out to be 17.2%; in assay [18] it was 33.2%; in assay [19], 46.2%; in assay [14] it was 67.6%. Moreover, the IC50 in assay [7] is over 50 µM; in assay [8], over 50 µM; in assay [9] it was over 50 µM; with RBL-2H3 [10], over 25 µM; in assay [16] it was 30.5 µM. Further, the Emax at 25 µM with RBL-2H3 [12] came to 43.6%.
As to `CCCCCc1cc(O)c(C/C=C(\C)CCC=C(C)C)c(O)c1` [CANNABIGEROL], the maximal response (Emax) in the assay filed under Chlorocebus aethiops was 54.2%; in assay [11] it was 19.4%; in [14], 44.8%; in assay [17], 44.9%. In addition, the IC50 is over 100 µM in [7]; 95.7 µM in [8]; over 100 µM in assay [9]; 11.3 µM with RBL-2H3 [10]; over 100 µM in assay [16]. In the assay on RBL-2H3 [12], this compound had an Emax at 25 µM of 85.4%. The Ki at Cannabinoid receptor 1 [13] was 0.897 µM.
Regarding `O=C(O[C@@H]1Cc2c(O)cc(O)cc2O[C@@H]1c1ccc(O)c(O)c1)c1cc(O)c(O)c(O)c1` [EPICATECHIN GALLATE], the Ki at Cannabinoid receptor 1 [20] worked out at 47.3 µM; on Cannabinoid receptor 2 [21] it was 95.6 µM.
For `Oc1cc(O)c2c(c1)O[C@H](c1cc(O)c(O)c(O)c1)[C@H](O)C2` [EPIGALLOCATECHIN], in that order: 35.7 µM and 361 µM.
The compound `O=C(O[C@@H]1Cc2c(O)cc(O)cc2O[C@@H]1c1cc(O)c(O)c(O)c1)c1cc(O)c(O)c(O)c1` [EPIGALOCATECHIN GALLATE] showed a Ki at Cannabinoid receptor 2 [21] of 42.8 µM.

For the origin of these results see ChEMBL document CHEMBL4422692, “Plant-Based Modulators of Endocannabinoid Signaling” (J Nat Prod, 2019).
